Test results from patent US20260327250A1, “3-ETHYLAMINO-INDOLE DIMERS AS SEROTONERGIC AGENTS USEFUL FOR THE TREATMENT OF DISORDERS RELATED THERETO” (MINDSET PHARMA INC., priority 2022, published 2026).

Columns and labels:
in vitro [1] = details: human, plasma
Experimental: (§1) The stock solution of test compound was prepared in DMSO and diluted at the final concentration of 200 μM.
(§2) • a. 2.5 μL of 200 μM or 1 mM test compound or control compound solution was spiked to 497.5 μL plasma to reach a final concentration of 1 μM or 5 μM. The final concentration of organic solvents was 0.5%. The assay was performed in duplicated. • b. The reaction samples were incubated at 37° C. at approximately 60 rpm in a water bath. • c. Aliquots of 50 μL were taken from the reaction samples at 0, 30, 60, 120, 180 and 240 minutes. The reaction was stopped by the addition of 7 volumes of cold acetonitrile containing internal standards (IS: 100 nM alprazolam, 200 nM imipramine, 200 nM labetalol and 2 μM ketoprofen). • d. All samples were vortexed for 2 minutes, followed by centrifugation at 3,220 g for 30 minutes to precipitate proteins. 100 μL of the supernatant was transferred to a new plate. The supernatant was diluted with ultrapure water according to the LC-MS signal response and peak shape.
(§3) Samples were Analyzed by LC-MS/MS. • LC system: Shimadzu • MS analysis: Triple Quad™ 6500+ from AB Inc (Canada) with an ESI interface • Column temperature: 40° C. • Column: Xselect® Hss T3 2.5μ (2.1×30 mm) coupled with preguard column • Mobile phase: 0.1% formic acid in water (A) and 0.1% formic acid in acetonitrile (B)
(§4) All calculations were carried out using Microsoft Excel. Remaining percentages of parent compounds at each time point were estimated by determining the peak area ratios from extracted ion chromatograms.

in vitro [2] = details: dog, plasma
Experimental: as §1, §2, §3, §4

5-HT2 receptor = details: rat brain, daily administration; cited from earlier work
human 5-HT2A receptor = human 5-HT2A receptor (Homo sapiens, UniProt P28223); details: human versus rat receptor; cited from earlier work
5-HT2A = details: rats, 5-HT2A or 5-HT1A antagonists; cited from earlier work
[3] = system: low attentive and low motivated rats; details: doses below the threshold for wet dog shake response; cited from earlier work
[4] = humans, controlled setting; cited from earlier work

Chain of human 5-HT2A receptor (P28223 whole entry): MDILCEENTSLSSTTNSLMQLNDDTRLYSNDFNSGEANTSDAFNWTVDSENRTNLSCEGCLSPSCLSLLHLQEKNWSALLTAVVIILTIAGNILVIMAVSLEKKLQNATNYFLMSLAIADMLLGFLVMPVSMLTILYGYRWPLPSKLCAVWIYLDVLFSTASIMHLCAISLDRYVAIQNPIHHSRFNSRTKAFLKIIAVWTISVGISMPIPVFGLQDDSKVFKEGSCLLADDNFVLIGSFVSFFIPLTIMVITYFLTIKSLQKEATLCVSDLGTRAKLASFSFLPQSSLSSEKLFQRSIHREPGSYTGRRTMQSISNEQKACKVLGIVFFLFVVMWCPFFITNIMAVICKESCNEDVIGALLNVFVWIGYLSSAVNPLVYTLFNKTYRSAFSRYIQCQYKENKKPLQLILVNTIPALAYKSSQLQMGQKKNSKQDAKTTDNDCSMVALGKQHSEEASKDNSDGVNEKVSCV

Row | SMILES | remaining at 0.5 h (in vitro [1]) [%] | remaining at 1 h (in vitro [1]) [%] | remaining at 2 h (in vitro [1]) [%] | remaining at 3 h (in vitro [1]) [%] | remaining at 4 h (in vitro [1]) [%] | half-life (in vitro [2]) [min] | remaining at 0.5 h (in vitro [2]) [%] | remaining at 1 h (in vitro [2]) [%] | remaining at 2 h (in vitro [2]) [%] | remaining at 3 h (in vitro [2]) [%] | remaining at 4 h (in vitro [2]) [%] | 5-HT2 receptor density (5-HT2 receptor) | affinity for 5-HT2A receptor (human 5-HT2A receptor) | drug discrimination (5-HT2A) | task performance [3] | adverse effect [4]
1 | CN(C)CCc1c[nH]c2cccc(OC(=O)CCCC(=O)Oc3cccc4[nH]cc(CCN(C)C)c34)c12 [Compound I-24, Bis(3-(2-(dimethylamino)ethyl)-1H-indol-4-yl) glutarate] | 0 | 0 | 0 | 0 | 0 | 19 | 32.9 | 11.2 | 0 | 0 | 0 | – | – | – | – | –
2 | CN(C)CCc1c[nH]c2cccc(OP(=O)(O)O)c12 [Psilocybin] | – | – | – | – | – | – | – | – | – | – | – | reduce 5-HT2 receptor density in rat brain | stronger affinity for the human 5-HT2A receptor than for the rat receptor | 5-HT2A antagonists, but not 5-HT1A antagonists, prevented rats from recognizing psilocybin | improved performance on the 5-choice serial reaction time and progressive ratio tasks | transient, delayed headache
